According to patent US20130204017A1, “GLYCERYL ASCORBIC ACID ACYLATED DERIVATIVE OR ITS SALT, PRODUCTION METHOD THEREOF, AND COSMETICS” (SEIWA KASEI COMPANY, LIMITED, priority 2012, published 2013):

What was measured:
B16 melanoma 4A5 cell = test: Melanin production suppressing evaluation test (theophylline-induced melanine production); assay type: cell-based, mouse; conditions: sample at a concentration of 100 μl or less; 0.2 mM theophylline; culturing 3 days
Description: As a test for a whitening effect, evaluation of the action of B16 melanoma 4A5 cell on theophylline-induced melanine production was carried out on a glyceryl ascorbic acid acylated derivative of the present invention, according to the following procedure. The same evaluations were carried out also on arbutin, ascorbic acid, sodium ascorbate, magnesium ascorbyl phosphate, glucosyl ascorbic acid, and 3-O-glyceryl ascorbic acid and 2-O-glyceryl ascorbic acid obtained in the Synthesis Examples mentioned above, as comparison.
(1) B16 mouse melanoma 4A5 strain was sowed onto a 48-well plate at a cell density of 2.0×10^4 cells/well. (2) Culturing was performed for 24 hours with Dulbecco's Modified Eagle's medium (manufactured by SIGMA. Hereinafter, abbreviated as D-MEM) containing 10% fetal bovine serum (manufactured by Roshe Diagnostics). Then, it was changed to 0.2 mM theophylline and a 10% fetal bovine serum-containing D-MEM which contains a sample of given concentration. (3) After culturing for 3 days in the co-existence of a sample, the medium was removed using an aspirator. Then, after distilled water was added, cells were broken by an ultrasonic wave. (4) Thereafter, the amount of protein was determined using BCA protein assay kit (manufactured by PIERCE), and the produced amount of melanine was measured by an alkali solubilizing method described later. To the cell-destructed solution was added sodium hydroxide so as to give a final concentration of 2 mol/L and the mixture was dissolved by heating (60° C., 15 minutes), then, the absorbance at 450 nm was measured using a micro plate reader. The melanine amount was calculated from a calibration curve made using synthetic melanine (SIGMA) as a standard. The melanine amount per unit protein was calculated by dividing the melanine amount by the protein amount. (5) The melanine production suppressing rate was calculated according to the following formula.
Melanine production suppressing rate(%)=[1−(A−B)/(C−B)]×100
[wherein, A represents the melanine amount per unit protein (g/g) in adding a sample, B represents the melanine amount per unit protein (g/g) in the normal group, and C represents the melanine amount per unit protein (g/g) in the control group.]
The normal group means the case where neither theophylline nor sample was added.(that is; theophylline(−) and sample(−))
The control group means the case where neither sample was not added but theophylline was added.(that is; theophylline (+) and sample(−))
In the following Tables, the melanine production suppressing rate in applying a sample at a concentration of […] or less is expressed as described below.

[1] = test system: Normal human dermal fibroblasts; test: Collagen production evaluation test (Sircol collagen assay); assay type: cell-based; conditions: sample 100 μM, cultured 48 hours; for activity at 100 µM: Homo sapiens, Fibroblast, read-out: Collagen production promoting effect (collagen production amount, control group is 100%)
Description: The collagen production promoting effects of the glyceryl ascorbic acid acylated derivatives of the present invention were evaluated, according to the following procedure. As comparison, arbutin, ascorbic acid, sodium ascorbate, magnesium ascorbyl phosphate, glucosyl ascorbic acid, 3-O-glyceryl ascorbic acid and 2-O-glyceryl ascorbic acid were used like in Test Example 1.
Normal human dermal fibroblasts were regulated with a 10% (v/v) fetal bovine serum (manufactured by Invitrogen)-containing D-MEM so as to give a cell density of 2.5×10^4 cells/well, then, pre-incubation for 24 hours was performed on a 96-well plate. After the medium was removed, a sample regulated with a 5% (v/v) fetal bovine serum-containing D-MEM to a concentration of 100 μM was added to each well, then, cultured for 48 hours at 37° C. and 5% CO2. After completion of culturing, the amount of free collagen was measured using Sircol collagen assay kit (manufactured by Biocolor).
The collagen production amount in applying a sample at a concentration of 100 μM is obtained as % value when the control group is 100%, and the results are shown in Table 4 based on the following standard.

[2] = In vitro moisturizing test (amount of retained water); assay type: physicochemical; conditions: 25° C., 65% RH to equilibrium, then 25° C., 20% RH for 24 hours
Description: (§1) An in vitro moisturizing test and an in vivo moisturizing test of the glyceryl ascorbic acid acylated derivatives of Examples 1 to 6 were carried out according to the following manner. For comparison, sodium ascorbate, magnesium ascorbyl phosphate, glucosyl ascorbic acid, 3-O-glyceryl ascorbic acid, 2-O-glyceryl ascorbic acid and 3-O-cetyl ascorbic acid were used.
A sample shown later was dried, and the dried sample was spread in an amount of about 0.4 g (this weight is represented by W0) on the bottom of a weighing bottle (diameter: 3.6 cm, height excluding lid: 1.8 cm) so as to give uniform thickness. The sample contained in the weighing bottle was allowed to stand still in a constant humidity and constant temperature vessel (ENVIROS KCL-1000, EYELA) under environments of 25° C. and 65% RH. The weight was measured periodically, waiting until sufficient moisture absorption to attain equilibrium of weight increase (about 48 hours). Thereafter, the sample was transferred to under environments of 25° C. and 20% RH (in sealed vessel containing a saturated CH3COOK aqueous solution filled in the bottom part). From the weight after 24 hours (this weight is represented by W1), the amount of retained water per 1 g of the dried sample was calculated according to the following formula.
From the water amount thus calculated, the moisturizing effect was judged based on the following judging criterion, and the results are shown in Table 8.
Δ: 15 mg or more and less than 35 mg

[3] = In vivo moisturizing test (stratum corneum water content, forearm); conditions: 5 g in 100 mL water, pH 7, 0.3 mL on forearm, 10 subjects
Description: as §1
Each test sample (5 g) was dissolved in 100 mL of water, and pH thereof was adjusted to 7 with a dilute sodium hydroxide aqueous solution or a dilute hydrochloric acid aqueous solution to prepare a sample solution. A paper filter of 1 cm×1 cm was placed on a forearm portion and 0.3 mL of the prepared sample solution was applied on this, and covered and fixed by a polyamide film. Then, 3 hours and 8 hours after, the stratum corneum water content at the sample-applied portion was measured using CORNEOMETER CM825 (manufactured by Integral Corporation). The test was carried out with 10 subjects, and evaluated according to the following criterion (evaluation standard).
3: Stratum corneum water content increased by 15% or more, based on the water content before sample application
2: Stratum corneum water content increased by 0 to less than 15%, based on the water content before sample application
1: There was no change or there was a reduction in stratum corneum water content, before and after sample application.
Based on the evaluation results, classification was set as described below.
◯: Total points of 10 subjects is 25 or more
Δ: Total points of 10 subjects is 16 to 24
x: Total points of 10 subjects is 15 or less

[4] = Stability test: odor and color change of 2% aqueous solution stored at 50° C.; assay type: physicochemical; conditions: pH7, ten panelists
Description: Using 2-O-glyceryl-6-O-octanoyl ascorbic acid obtained in Example 2 and 2-O-glyceryl-6-O-octadecanoyl ascorbic acid obtained in Example 9, an evaluation was made on the stability of odor and color change when stored at 50° C. for 4 weeks, according to the following procedure. For comparison, magnesium ascorbyl phosphate, ascorbic acid and 3-O-glyceryl ascorbic acid were used.
Aqueous solutions (2%) of various test samples were adjusted to pH7 with a dilute sodium hydroxide aqueous solution or a dilute hydrochloric acid aqueous solution, and charged into 50 mL screw tubes. The tubes were sealed and stored at 50° C. for 4 weeks. The odor and degree of color change immediately after preparation, after storage for two weeks and after storage for four weeks were evaluated by ten panelists based on the following methods and according to the following criterion.
3: almost no change as compared with that immediately after preparation
2: color change is observed as compared with that immediately after preparation
1: intense color change is observed as compared with that immediately after preparation
Based on the evaluation results, classification was conducted as shown below.
◯: total point of 10 panelists is 25 or more
Δ: total point of 10 panelists is 16 to 24
x: total point of 10 panelists is 15 or less

[5] = storage period 0 (immediately after preparation)

O=C1O[C@H]([C@@H](O)CO)C(O)=C1OCC(O)CO (some centres unmarked) [2-O-glyceryl ascorbic acid, reference compound]
Whitening effect (melanine production suppressing rate) (B16 melanoma 4A5 cell): Δ (Less than 30%)
activity at 100 µM [1]: 100 to 200%
in vitro moisturizing effect (amount of retained water per 1 g of the dried sample) [2]: ◯ (35 mg or more)
in vivo moisturizing (stratum corneum water content) after 3 hours [3]: Δ (Total points of 10 subjects is 16 to 24)
in vivo moisturizing (stratum corneum water content) after 8 hours [3]: Δ (Total points of 10 subjects is 16 to 24)

O=C1O[C@H]([C@@H](O)CO)C(OCC(O)CO)=C1O (some centres unmarked) [3-O-glyceryl ascorbic acid]
Whitening effect (melanine production suppressing rate) (B16 melanoma 4A5 cell): Δ (Less than 30%)
activity at 100 µM [1]: 100 to 200%
Color change ([4]; storage 2 weeks at 50° C.): ◯ (total point of 10 panelists is 25 or more)
Odor ([4]; storage 2 weeks at 50° C.): ◯ (total point of 10 panelists is 25 or more)
Color change ([4]; storage 4 weeks at 50° C.): Δ (total point of 10 panelists is 16 to 24)
Odor ([4]; storage 4 weeks at 50° C.): ◯ (total point of 10 panelists is 25 or more)
Color change [4, 5]: ◯ (total point of 10 panelists is 25 or more)
Odor [4, 5]: ◯ (total point of 10 panelists is 25 or more)
in vitro moisturizing effect (amount of retained water per 1 g of the dried sample) [2]: ◯ (35 mg or more)
in vivo moisturizing (stratum corneum water content) after 8 hours [3]: Δ (Total points of 10 subjects is 16 to 24)

CCCCCCCC(=O)OC[C@H](O)[C@H]1OC(=O)C(OCC(O)CO)=C1O (some centres unmarked) [Example 2, 2-O-glyceryl-6-O-octanoyl ascorbic acid]
Whitening effect (melanine production suppressing rate) (B16 melanoma 4A5 cell): ⊚ (50% or more)
activity at 100 µM [1]: 100 to 200%
Color change ([4]; storage 2 weeks at 50° C.): ◯ (total point of 10 panelists is 25 or more)
Odor ([4]; storage 2 weeks at 50° C.): ◯ (total point of 10 panelists is 25 or more)
Color change ([4]; storage 4 weeks at 50° C.): ◯ (total point of 10 panelists is 25 or more)
Odor ([4]; storage 4 weeks at 50° C.): ◯ (total point of 10 panelists is 25 or more)
Color change [4, 5]: ◯ (total point of 10 panelists is 25 or more)
Odor [4, 5]: ◯ (total point of 10 panelists is 25 or more)
in vivo moisturizing (stratum corneum water content) after 3 hours [3]: ◯ (Total points of 10 subjects is 25 or more)
in vivo moisturizing (stratum corneum water content) after 8 hours [3]: ◯ (Total points of 10 subjects is 25 or more)

CCCCCCCCCCCCCCCC(=O)OC[C@H](O)[C@H]1OC(=O)C(OCC(O)CO)=C1O (some centres unmarked) [Example 3, 2-O-glyceryl-6-O-hexadecanoyl ascorbic acid]
Whitening effect (melanine production suppressing rate) (B16 melanoma 4A5 cell): ⊚ (50% or more)
activity at 100 µM [1]: 100 to 200%
in vivo moisturizing (stratum corneum water content) after 3 hours [3]: ◯ (Total points of 10 subjects is 25 or more)
in vivo moisturizing (stratum corneum water content) after 8 hours [3]: ◯ (Total points of 10 subjects is 25 or more)

CCCCCCCC(=O)OCC(O)COC1=C(O)[C@@H]([C@@H](O)COC(=O)CCCCCCC)OC1=O (some centres unmarked) [Example 4, 2-O-(3′-O-octanoylglyceryl)-6-O-octanoyl ascorbic acid]
Whitening effect (melanine production suppressing rate) (B16 melanoma 4A5 cell): ⊚ (50% or more)
activity at 100 µM [1]: 100 to 200%
in vivo moisturizing (stratum corneum water content) after 3 hours [3]: ◯ (Total points of 10 subjects is 25 or more)
in vivo moisturizing (stratum corneum water content) after 8 hours [3]: ◯ (Total points of 10 subjects is 25 or more)

CCCCCCCCCCCC(=O)OC[C@H](O)[C@H]1OC(=O)C(OCC(O)CO)=C1O (some centres unmarked) [Example 5, 2-O-glyceryl-6-O-dodecanoyl ascorbic acid]
Whitening effect (melanine production suppressing rate) (B16 melanoma 4A5 cell): ⊚ (50% or more)
activity at 100 µM [1]: 100 to 200%
in vivo moisturizing (stratum corneum water content) after 3 hours [3]: ◯ (Total points of 10 subjects is 25 or more)
in vivo moisturizing (stratum corneum water content) after 8 hours [3]: ◯ (Total points of 10 subjects is 25 or more)

CCCCC(CC)C(=O)OC[C@H](O)[C@H]1OC(=O)C(OCC(O)CO)=C1O (some centres unmarked) [Example 6, 2-O-glyceryl-6-O-(2-ethylhexanoyl) ascorbic acid]
Whitening effect (melanine production suppressing rate) (B16 melanoma 4A5 cell): ⊚ (50% or more)
activity at 100 µM [1]: 100 to 200%
in vivo moisturizing (stratum corneum water content) after 3 hours [3]: ◯ (Total points of 10 subjects is 25 or more)
in vivo moisturizing (stratum corneum water content) after 8 hours [3]: ◯ (Total points of 10 subjects is 25 or more)

O=C1O[C@H]([C@@H](O)CO)C(O)=C1O[C@H]1O[C@H](CO)[C@@H](O)[C@H](O)[C@H]1O [Glucosyl ascorbic acid, reference compound]
Whitening effect (melanine production suppressing rate) (B16 melanoma 4A5 cell): Δ (Less than 30%)
Collagen production promoting effect (collagen production amount, control group is 100%) [1]: + (100 to 200%)
in vitro moisturizing effect (amount of retained water per 1 g of the dried sample) [2]: Δ (15 mg or more and less than 35 mg)
